From patent EP0814162A2 (priority 1996, dated 1997)

Assays:
hla-lacZ fusion = assay: β-galactosidase chemiluminescent reporter assay of the chromosomal hla-lacZ fusion (hla expression); format: cell-based, S. aureus Wood 46-3; details: for influence on hla expression (in words): subinhibitory concentrations of antibiotics
hla mRNA = assay: Northern blot analysis with intragenic hla probe; details: 0.5 µg/ml methicillin versus without antibiotic
[1] = mouse model; cited from earlier work
α-toxin = details: in vitro; cited from earlier work

Row | Compound | influence on hla expression (in words) (hla-lacZ fusion) | further results
1 | CC[C@H]1OC(=O)[C@H](C)[C@@H](O[C@H]2C[C@@](C)(OC)[C@@H](O)[C@H](C)O2)[C@H](C)[C@@H](O[C@@H]2O[C@H](C)C[C@H](N(C)C)[C@H]2O)[C@](C)(O)C[C@@H](C)C(=O)[C@H](C)[C@@H](O)[C@]1(C)O [Erythromycin] | repressed | –
2 | COc1cccc(OC)c1C(=O)N[C@@H]1C(=O)N2[C@@H]1SC(C)(C)[C@@H]2C(=O)O [Methicillin] | dramatically increased | increase of the β-galactosidase activity compared to medium without antibiotic (hla-lacZ fusion; quarter of the MIC, postexponential phase): sixfold increase; amount of hla mRNA detected by Northern hybridization (hla mRNA): greater amount of hla mRNA
3 | [Cl-].[Na+] [NaCl, sodium chloride] | – | β-galactosidase production (hla-lacZ fusion; 0.8 M NaCl in LB broth, postexponential): 7800 RLU; effect on hla expression (in words) (hla-lacZ fusion; NaCl above 1.6 M): inhibitory
4 | C[C@@H]1O[C@@H]1P(=O)(O)O [Fosfomycin] | weak stimulatary effect | –
5 | CN[C@H](CC(C)C)C(=O)N[C@H]1C(=O)N[C@@H](CC(N)=O)C(=O)N[C@H]2C(=O)N[C@H]3C(=O)N[C@H](C(=O)N[C@H](C(=O)O)c4cc(O)cc(O)c4-c4cc3ccc4O)[C@H](O)c3ccc(c(Cl)c3)Oc3cc2cc(c3O[C@@H]2O[C@H](CO)[C@@H](O)[C@H](O)[C@H]2O[C@H]2C[C@](C)(N)[C@H](O)[C@H](C)O2)Oc2ccc(cc2Cl)[C@H]1O [Vancomycin] | weak stimulatary effect | –
6 | CCOc1ccc2ccccc2c1C(=O)N[C@@H]1C(=O)N2[C@@H]1SC(C)(C)[C@@H]2C(=O)O [nafcillin] | – | lethal activity of broth filtrates [1]: increases; α-toxin production (α-toxin): induces
7 | COc1cc(Cc2cnc(N)nc2N)cc(OC)c1OC [Trimethoprim] | weak stimulatary effect | –
8 | Cc1onc(-c2ccccc2)c1C(=O)N[C@@H]1C(=O)N2[C@@H]1SC(C)(C)[C@@H]2C(=O)O [Oxacillin] | dramatically increased | –
